US12011444B2, “N-substituted indole derivatives as PGE2 receptor modulators” (Idorsia Pharmaceuticals Ltd, priority 2015, dated 2024)

How the values were obtained:
[1] = target: PTRGER4 (EP4) (Homo sapiens (Human), UniProt P35408); assay: hEP4 b-arrestin assay (PathHunter HEK 293 PTGER4 b-arrestin cells); format: cell-based
Source text: (§1) The assay is using the PathHunter™ HEK 293 PTGER2 and PTGER4 b-arrestin cell lines from DiscoverX. The system is based on the Enzyme Fragment Complementation Technology. Two complementing fragments of the b-galactosidase enzyme are expressed within stably transfected cells. The larger portion of b-gal, termed EA for Enzyme Acceptor, is fused to the C-terminus of b-arrestin 2. The smaller fragment, termed ProLink™ tag, is fused to PTGER2 (EP2) or PTRGER4 (EP4) at the C-terminus. Upon activation, b-arrestin is recruited which forces the interaction of ProLink and EA, allowing complementation of the two fragments of b-gal and the formation of a functional enzyme which is capable of hydrolysing the substrate and generating a chemiluminescent signal.
(§2) 5000 cells per well of a 384 well plate (white with white bottom Greiner 781080) are seeded in 20 ul per well of GM. Plate is incubated at 37° C., 5% C02 for 24 hours.
Plate is pre-incubated 15 minutes at 37° C. Then five microliters of PGE2 (final conc. 20 nM) are transferred into the assay plate. Plate is incubated 120 minutes at 37° C.
(§3) Twelve μl of reagent are transferred to the assay plate and incubate for 1 hour at room temperature in the dark. Luminescence counts are read on a BMG Fluostar Optima reader according to manufacturer's instructions. For each compound concentration calculate of the percentage of activity compared to DMSO control value as average±STDEV.

[2] = target: PTGER2 (EP2) (Homo sapiens (Human), UniProt P43116); assay: hEP2 b-arrestin assay (PathHunter HEK 293 PTGER2 b-arrestin cells); format: cell-based
Source text: as §1, §2
Plate is pre-incubated 15 minutes at 37° C. Then five microliters of PGE2 (final conc. 5 μM) are transferred into the assay plate. Plate is incubated 120 minutes at 37° C.
as §3, with “average±STDEV. (each concentration is measured in duplicate)” for “average±STDEV.”

[3] = hEP4 b-arrestin assay (values without asterisk)
[4] = hEP2 b-arrestin assay (values without asterisk)
[5] = antagonistic activity on hEP4, mean where measured multiple times
[6] = antagonistic activity on hEP2, mean where measured multiple times

Sequence of PTRGER4 (EP4) (P35408 whole entry, looked up, the tested form may be a part): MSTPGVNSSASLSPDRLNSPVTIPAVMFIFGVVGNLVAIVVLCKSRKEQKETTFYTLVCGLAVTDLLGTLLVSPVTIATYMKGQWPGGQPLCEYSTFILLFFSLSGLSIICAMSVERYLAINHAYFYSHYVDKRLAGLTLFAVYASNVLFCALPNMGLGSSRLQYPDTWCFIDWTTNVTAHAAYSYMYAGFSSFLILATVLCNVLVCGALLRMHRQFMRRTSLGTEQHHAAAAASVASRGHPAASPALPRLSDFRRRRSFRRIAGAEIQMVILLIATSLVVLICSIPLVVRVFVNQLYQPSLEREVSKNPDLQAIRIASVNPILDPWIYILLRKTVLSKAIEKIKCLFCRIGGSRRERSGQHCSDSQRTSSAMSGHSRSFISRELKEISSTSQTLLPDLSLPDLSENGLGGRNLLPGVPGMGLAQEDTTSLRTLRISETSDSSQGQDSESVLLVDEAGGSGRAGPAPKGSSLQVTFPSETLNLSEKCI
Sequence of PTGER2 (EP2) (P43116 whole entry): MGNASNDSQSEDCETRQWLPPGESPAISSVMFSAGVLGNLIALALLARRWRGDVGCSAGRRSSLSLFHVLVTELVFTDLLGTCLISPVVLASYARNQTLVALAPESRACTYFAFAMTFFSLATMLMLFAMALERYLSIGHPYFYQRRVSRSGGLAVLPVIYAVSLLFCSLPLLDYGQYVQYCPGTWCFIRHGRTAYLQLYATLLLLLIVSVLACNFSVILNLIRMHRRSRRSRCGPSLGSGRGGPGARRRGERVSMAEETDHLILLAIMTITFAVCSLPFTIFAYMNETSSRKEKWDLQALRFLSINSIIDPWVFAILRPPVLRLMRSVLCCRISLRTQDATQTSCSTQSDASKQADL

Compound	IC50 [1, 3] [nM]	IC50 [2, 4] [nM]	IC50 [1, 5] [nM]	IC50 [2, 6] [nM]
COc1cc(Cl)cc2c1cc(C)n2CCNc1cc(-c2cc(OC(C)C)c(C(=O)O)s2)ncn1 [Example 869, 5-{6-[2-(6-Chloro-4-methoxy-2-methyl-indol-1-yl)-ethylamino]-pyrimidin-4-yl}-3-isopropoxy-thiophene-2-carboxylic acid]	8	2		
CCOc1cc(-c2cc(NCCn3c(C)cc4c(OC)cc(Cl)cc43)ncn2)sc1C(=O)O [Example 871, 5-{6-[2-(6-Chloro-4-methoxy-2-methyl-indol-1-yl)-ethylamino]-pyrimidin-4-yl}-3-ethoxy-thiophene-2-carboxylic acid]	16	2		
CCCc1cc(-c2cc(NCCn3c(C)cc4cc(OC)cc(F)c43)ncn2)cc(Cl)c1C(=O)O [compound 372]			381	260
CCOc1cc(-c2cc(NCCn3c(C)cc4c(OC)c(F)cc(F)c43)ncn2)ccc1C(=O)O [compound 364]			543	84
CCc1cc(-c2cc(NCCn3c(C)cc4c(C)cc(F)cc43)ncn2)sc1C(=O)O [compound 104]			44	24
Cc1ccc(F)c2c1cc(C)n2CCNc1cc(-c2cc(Cl)c(C(=O)O)s2)ncn1 [compound 18, 3-Chloro-5-{6-[2-(7-fluoro-2,4-dimethyl-indol-1-yl)-ethylamino]-pyrimidin-4-yl}-thiophene-2-carboxylic acid]			123	27
Cc1cc(-c2cc(NCCn3c(C)cc4c(C)ccc(F)c43)ncn2)ccc1C(=O)O [compound 31, 4-{6-[2-(7-Fluoro-2,4-dimethyl-indol-1-yl)-ethylamino]-pyrimidin-4-yl}-2-methyl-benzoic acid]			543	24
COc1ccc(F)c2c1cc(C)n2CCNc1cc(-c2ccc(-c3ncc[nH]3)cc2)ncn1 [compound 192, [2-(7-Fluoro-4-methoxy-2-methyl-indol-1-yl)-ethyl]-{6-[4-(1H-imidazol-2-yl)-phenyl]-pyrimidin-4-yl}-amine]			287	23
CCOc1cc(-c2cc(NCCn3c(C#N)cc4c(OC)ccc(F)c43)ncn2)ccc1S(N)(=O)=O [Example 929, 4-{6-[2-(2-Cyano-7-fluoro-4-methoxy-indol-1-yl)-ethylamino]-pyrimidin-4-yl}-2-ethoxy-benzenesulfonamide]	33	20		
CCOc1cc(-c2cc(NCCn3c(C)cc4c(OC)ccc(F)c43)ncn2)ccc1-c1ncco1 [Example 842, [6-(3-Ethoxy-4-oxazol-2-yl-phenyl)-pyrimidin-4-yl]-[2-(7-fluoro-4-methoxy-2-methyl-indol-1-yl)-ethyl]-amine]	94	13		
CCOc1cc(-c2cc(NCCn3c(C#N)cc4c(OC)cccc43)ncn2)ccc1NCC(=O)O [Example 865, (4-{6-[2-(2-Cyano-4-methoxy-indol-1-yl)-ethylamino]-pyrimidin-4-yl}-2-ethoxy-phenylamino)-acetic acid]	5	7		
CCc1cc(-c2cc(NCCn3c(C)cc4c5c(cc(Cl)c43)OCO5)ncn2)ccc1C(=O)O [compound 295, 4-{6-[2-(5-Chloro-7-methyl-[1,3]dioxolo[4,5-e]indol-6-yl)-ethylamino]-pyrimidin-4-yl}-2-ethyl-benzoic acid]			950	12
CCOc1cc(-c2cc(NCCn3c(C#N)cc4c(C)c(F)c(F)cc43)ncn2)ccc1NCC(=O)O [Example 895, (4-{6-[2-(2-Cyano-5,6-difluoro-4-methyl-indol-1-yl)-ethylamino]-pyrimidin-4-yl}-2-ethoxy-phenylamino)-acetic acid]	66	20		
CCOc1cc(-c2cc(NCCn3c(C)cc4c(C)cc(F)c(Cl)c43)ncn2)ccc1C(=O)O [compound 210]			991	472
Cc1cc2ccccc2n1CCNc1cc(-c2ccc(-c3nnc(N)s3)cc2)ncn1 [compound 363]			474	1
COc1ccc(F)c2c1cc(C#N)n2CCNc1cc(-c2ccc(C(=O)O)c(OC(F)F)c2)ncn1 [Example 917, 4-{6-[2-(2-Cyano-7-fluoro-4-methoxy-indol-1-yl)-ethylamino]-pyrimidin-4-yl}-2-difluoromethoxy-benzoic acid]	35	24		
